Data as given in PMC5793121 (Toxins, 2018).
Entries after “also recorded” stand apart in the source; their conditions may differ. Read-outs that look alike come from different tables or passages of the source.

Assays:
mice [1] = settings: 0.1 mg/kg; cited from earlier work
[2] = system: hprt gene of CHO-k1 cells; settings: n = 6
mice [3] = settings: mouse, in vivo; cited from earlier work
[4] = Procedure: The pharmacokinetic study was performed using 163 male ICR mice. Four experimental groups with 40 animals in each were formed. Three intact mice were used as control animals. The animals of the first two experimental groups were intravenously injected with 0.25 and 0.50 mg/kg [^125I]-Az, respectively. The animals of the other two experimental groups were intramuscularly injected with 0.25 and 0.50 mg/kg [^125I]-Az, respectively. To estimate Az elimination rate, animal blood samples were taken from the orbital sinus 5, 15, 30, 60 min and 1, 2, 4 and 24 h after [^125I]-Az administration. The obtained blood samples were weighed. For each indicated time point, [^125I]-Az concentration was calculated as a mean value in blood samples of five animals. The radioactivity (cpm) in the blood samples was counted using a Wallac 1470 WIZARD® Gamma Counter (Perkin Elmer, Waltham, MA, USA). […] Radioactivity data (cpm) were re-calculated to the concentration of [^125I]-Az in the obtained blood samples. The specific pharmacokinetic parameters (AUC (0 → t), Cmax, T1/2) of [^125I]-Az were estimated.
male ICR mice [5] = experiment: in vivo
Procedure: Az acute toxicity was estimated for its intravenous (iv) and intramuscular (im) administration to male ICR mice in a stepwise procedure.
For the iv route of administration, 20 mice were randomly divided in 5 groups of 4 animals each. The animals of each group received a single dose of Az (0.3, 0.4, 0.5, 0.6, or 0.7 mg/kg, respectively) injected into the lateral tail vein at a volume of 1 mL/kg. For the im route of administration, first two experimental groups of 3 animals each were formed. Az at doses of 0.75 and 1.0 mg/kg, respectively, was injected into the quadriceps muscle of the thigh (quadriceps femoris muscle) of two mouse hind limbs at a volume of 0.5 mL/kg to each muscle. Then, five experimental groups of 5 animals each were formed. Az was injected into the quadriceps muscle of the thigh (quadriceps femoris muscle) of the two hind limbs of male ICR mice at doses of 0.8, 0.775, 0.75, 0.725 and 0.7 mg/kg. The injection volume to each limb was 1 mL/kg. Further, neurotoxic manifestations were recorded in animals at 5, 10, 20, 30, 60 and 90 min and 24 h after administration using the functional observation battery, the number of death was counted as well.
For the iv and im route of administration, the median lethal dose (LD50) was calculated using a probit analysis. For the im route of administration, the maximum tolerated dose was determined.
Rocuronium was administered intramuscularly at doses of 0.13 mg/kg (n = 1), 0.1 mg/kg (n = 4) and 0.08 mg/kg (n = 4) in the triceps of the forelimbs of male ICR mice (8–9 weeks old). Control animals were injected with saline (n = 4). The volume of administration was 0.5 mL/kg in each limb.

[6] = human; cited from earlier work
Excerpt: Pharmacokinetics and pharmacodynamics are the empirical mathematical models that describe the time course of drug effect after administration. Pharmacokinetics describes the disposition of drug in the organism, while pharmacodynamics relates the drug effects to their concentration in the plasma and at the site of action. They can be used to predict the drug action at different doses and by this way to optimize the safe and effective use of the drug. Information from pharmacokinetic studies can be used in the design and analysis of data from other toxicity studies. Several pharmacokineti ...

[7] = system: human neuronal heteromeric α3-containing nAChRs (α3β2, α3β4, etc.); format: cell-based
[8] = target: T1, mouse muscle type α1β1εδ nAChR (Mus musculus, UniProt P02716+P04756+P20782); experiment: Calcium imaging of ACh-evoked [Ca2+]i rise in Neuro2a cells expressing muscle nAChR (Case12 sensor); format: cell-based
T1 construct: expressed in transfected cells; host or cells: mouse neuroblastoma Neuro2a, transient transfection (pRBG4 plasmids), co-expressed with Case12 calcium sensor
T1 sequence (P09690 24-501): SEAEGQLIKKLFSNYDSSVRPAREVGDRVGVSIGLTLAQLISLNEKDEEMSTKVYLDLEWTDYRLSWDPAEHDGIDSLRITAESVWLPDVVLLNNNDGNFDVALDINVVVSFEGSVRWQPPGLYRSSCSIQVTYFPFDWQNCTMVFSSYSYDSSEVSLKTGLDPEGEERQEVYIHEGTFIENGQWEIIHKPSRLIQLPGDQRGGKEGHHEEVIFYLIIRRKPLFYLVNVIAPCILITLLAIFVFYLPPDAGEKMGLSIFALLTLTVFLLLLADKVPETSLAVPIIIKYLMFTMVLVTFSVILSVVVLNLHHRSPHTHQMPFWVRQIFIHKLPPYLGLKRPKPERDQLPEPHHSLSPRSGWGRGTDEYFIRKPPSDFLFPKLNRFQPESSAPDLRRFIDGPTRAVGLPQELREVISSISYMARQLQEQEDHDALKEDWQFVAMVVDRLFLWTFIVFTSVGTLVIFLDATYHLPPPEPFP
T1 sequence (P04756 21-457): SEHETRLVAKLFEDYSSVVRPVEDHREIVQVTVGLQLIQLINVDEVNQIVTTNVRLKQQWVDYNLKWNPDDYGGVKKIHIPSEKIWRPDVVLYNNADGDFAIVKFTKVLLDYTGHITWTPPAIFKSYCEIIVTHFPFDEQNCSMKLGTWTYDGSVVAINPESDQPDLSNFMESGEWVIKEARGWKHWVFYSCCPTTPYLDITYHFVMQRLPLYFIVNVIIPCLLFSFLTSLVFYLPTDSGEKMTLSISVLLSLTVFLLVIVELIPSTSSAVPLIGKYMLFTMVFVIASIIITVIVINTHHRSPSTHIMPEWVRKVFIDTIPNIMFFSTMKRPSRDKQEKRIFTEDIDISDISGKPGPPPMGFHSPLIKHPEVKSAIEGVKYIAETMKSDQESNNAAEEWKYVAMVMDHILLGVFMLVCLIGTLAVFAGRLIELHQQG
T1 sequence (P02716 25-520): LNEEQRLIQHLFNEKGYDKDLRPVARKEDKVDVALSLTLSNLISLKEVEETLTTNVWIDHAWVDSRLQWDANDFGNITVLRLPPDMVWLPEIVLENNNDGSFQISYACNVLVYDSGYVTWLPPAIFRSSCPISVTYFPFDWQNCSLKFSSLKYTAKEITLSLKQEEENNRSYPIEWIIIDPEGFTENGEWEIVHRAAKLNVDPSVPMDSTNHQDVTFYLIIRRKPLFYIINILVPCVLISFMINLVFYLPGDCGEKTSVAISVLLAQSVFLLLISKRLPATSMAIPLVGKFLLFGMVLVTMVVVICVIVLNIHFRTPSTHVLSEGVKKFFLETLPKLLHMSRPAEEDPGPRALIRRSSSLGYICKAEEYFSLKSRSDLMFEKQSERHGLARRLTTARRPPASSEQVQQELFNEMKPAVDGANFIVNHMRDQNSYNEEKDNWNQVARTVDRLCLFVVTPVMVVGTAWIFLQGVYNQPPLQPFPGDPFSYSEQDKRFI
T1 sequence (P20782 21-493): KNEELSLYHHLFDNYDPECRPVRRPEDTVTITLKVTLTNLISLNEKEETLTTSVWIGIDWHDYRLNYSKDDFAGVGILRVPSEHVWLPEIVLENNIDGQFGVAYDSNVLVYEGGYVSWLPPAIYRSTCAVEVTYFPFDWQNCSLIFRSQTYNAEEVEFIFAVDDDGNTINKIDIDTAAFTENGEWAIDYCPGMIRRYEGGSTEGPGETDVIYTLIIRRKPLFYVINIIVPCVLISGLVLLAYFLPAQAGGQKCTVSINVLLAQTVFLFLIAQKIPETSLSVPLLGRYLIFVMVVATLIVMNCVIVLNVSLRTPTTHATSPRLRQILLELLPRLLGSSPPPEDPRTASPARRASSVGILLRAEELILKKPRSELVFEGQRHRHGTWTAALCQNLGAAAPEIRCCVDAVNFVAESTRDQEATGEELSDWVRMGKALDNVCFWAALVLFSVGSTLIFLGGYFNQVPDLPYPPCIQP
Procedure: (§1) Mouse neuroblastoma Neuro2a cells were purchased from the Russian collection of cell cultures (Institute of Cytology, Russian Academy of Sciences, Saint Petersburg, Russia). Cells were cultured in DMEM (Paneco, Moscow, Russia) supplemented with 10% FBS. They were sub-cultured the day before transfection and were plated at a density of 10,000 cells per well in a 96-well black plate. On the next day Neuro2a cells were transiently transfected with plasmids coding mouse muscle α1β1δε nAChR (pRBG4-vector) and a fluorescent calcium sensor Case12 (pCase12-cyto vector, Evrogen, Moscow, Russia) in a molar ratio of 2:1 following a lipofectamine transfection protocol (ThermoFisher Scientific, Waltham, MA, USA). Human α7 nAChR (α7 nAChR-pCEP4) was expressed accordingly with a co-expression of the human chaperone Ric-3 (Ric3-pCMV6-XL5, OriGene, Rockville, MD, USA) in a molar ratio 4:1. The transfected cells were grown at 37 °C in a CO2 incubator for 48–72 h, before performing the calcium imaging assay.
Calcium imaging procedure was performed as published earlier. Briefly, after removing the growth medium, the transfected Neuro2a cells and cultivated SH-SY5Y cells were washed with a buffer containing 140 mM NaCl, 2 mM CaCl2, 2.8 mM KCl, 4 mM MgCl2, 20 mM HEPES, 10 mM glucose; pH 7.4. Neuro2a cells expressing muscle nAChR and the protein calcium sensor Case12 were proceeded directly, while SH-SY5Y cells expressing human α3-containing nAChRs natively were loaded with a fluorescent dye Fluo-4, AM (1.824 μM, ThermoFisher Scientific, Waltham, MA, USA) and a water-soluble probenecid (1.25 mM, ThermoFisher Scientific, Waltham, MA, USA) for 30 min at 37 °C and then were kept for 30 min at room temperature according to the manufacturer’s protocol.
To detect the human α7 nAChR-mediated calcium response, transfected Neuro2a cells were incubated with its positive allosteric modulator PNU120596 (10 μM, Tocris Bioscience, Bristol, UK) for 20 min at room temperature before acetylcholine (Sigma-Aldrich Chemie Gmbh, Munich, Germany) addition. To assess mouse muscle or human α3-containing nAChRs this step was skipped. […]
(§2) The plates were transferred to the multimodal microplate reader Hidex Sence (Hidex, Turku, Finland) where the cells were excited by light of 485 nm wavelength and emitted fluorescence was detected at 535 ± 10 nm. Fluorescence was recorded every 2 s for three minutes following agonist addition. Responses were measured as peak intensity minus basal fluorescence level and were expressed as a percentage of the maximal response obtained to agonist. Data files were analyzed using Hidex Sence software (Hidex, Turku, Finland) and OriginPro 7.5 software (OriginLab, Northampton, MA, USA, for statistical analysis).

[9] = target: T2, human neuronal homopentameric α7 nAChR (Homo sapiens, UniProt P36544); experiment: Calcium imaging of ACh-evoked [Ca2+]i rise in Neuro2a cells expressing α7 nAChR; format: cell-based; settings: 10 μM ACh (EC50); transfected Neuro2a cells, PNU120596 10 μM; 15 min preincubation; mean ± SEM, 4 independent experiments; read-out: IC50, inhibition of ACh-evoked calcium response of α7 nAChR
T2 construct: expressed in transfected cells; host or cells: mouse neuroblastoma Neuro2a, transient transfection (α7 nAChR-pCEP4) with human Ric-3 (Ric3-pCMV6-XL5, OriGene)
T2 sequence (P36544 23-502): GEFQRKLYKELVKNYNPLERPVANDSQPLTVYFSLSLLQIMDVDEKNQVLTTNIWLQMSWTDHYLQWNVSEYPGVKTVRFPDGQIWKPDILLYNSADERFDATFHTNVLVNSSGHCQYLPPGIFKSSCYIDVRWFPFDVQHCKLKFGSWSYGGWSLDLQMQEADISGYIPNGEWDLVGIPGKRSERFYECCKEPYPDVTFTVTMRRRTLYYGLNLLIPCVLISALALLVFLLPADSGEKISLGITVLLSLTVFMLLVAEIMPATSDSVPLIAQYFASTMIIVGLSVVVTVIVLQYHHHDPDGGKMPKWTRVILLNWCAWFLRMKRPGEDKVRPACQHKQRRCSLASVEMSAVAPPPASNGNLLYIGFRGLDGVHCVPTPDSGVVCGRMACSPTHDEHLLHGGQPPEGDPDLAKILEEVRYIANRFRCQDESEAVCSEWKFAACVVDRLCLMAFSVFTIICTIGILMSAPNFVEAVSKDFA
Procedure: as §1, with “Human α7 nAChR (α7 nAChR-pCEP4) was expressed accordingly with a co-expression of the human chaperone Ric-3 (Ric3-pCMV6-XL5, OriGene, Rockville, MD, USA) in a molar ratio 4:1. The transfected cells were grown at 37 °C in a CO2 incubator for 48–72 h, before performing the calcium imaging assay.” left out
as §2

[10] = system: cultured human peripheral blood lymphocytes; settings: concentrations without significant cytotoxic effect; cited from earlier work
Excerpt: Mutagenicity, that is the induction of permanent transmissible changes in the amount or structure of the genetic material of cells or organisms, is very important parameter of drug candidate. Highly mutagenic compounds can hardly be considered for drug development, therefore mutagenicity studies are a necessary phase in preclinical evaluations.

male ICR mice [11] = experiment: Forelimb grip strength test (muscle relaxant effect) after intramuscular administration; format: in vivo, mouse
Procedure: 40 male ICR mice were divided equally into four groups: one control and three experimental groups. Animals of the control and experimental groups were treated with normal saline and with Az at doses of 0.03, 0.1 and 0.3 mg/kg, respectively. In addition 6 mice were treated with Az at dose of 0.01 mg/kg. The corresponding solutions were injected into the triceps muscles of the mouse forelimbs at a volume of 0.5 mL/kg per each limb. For all animals their basic forelimb grip strength was recorded before the substance administration with a 1027 grip strength meter (Columbus Instruments, Columbus, OH, USA). Further, their grip strength was measured 5, 10, 15, 20, 30, 60, 90 min after the Az (or normal saline) im administration.
Rocuronium was administered intramuscularly as described for the measurement of acute toxicity (Section 5.4.1). Muscle strength was assessed prior to administration of the substance and then 1, 2, 3, 4, 5 min after administration.

rats = settings: iv injection to rats; cited from earlier work
Procedure: Acute toxicity of Az was determined using different administration ways: intraperitoneal (ip), intramuscular (im) and intravenous (iv) injections.

[12] = intramuscular administration, 0.25 and 0.5 mg/kg, male ICR mice

Compound: CC(=O)O[C@H]1C[C@@H]2CC[C@@H]3[C@H](CC[C@@]4(C)[C@H]3C[C@H]([N+]3(C)CCCCC3)[C@@H]4OC(C)=O)[C@@]2(C)C[C@@H]1[N+]1(C)CCCCC1 [pancuronium]
- decrease of grip strength (mice [1]): 24.1%

Compound: Cc1ccc2cc3c(ccc4ccccc43)c3c2c1CC3 [methylcholanthrene, reference compound]
- frequency of mutations in the hprt gene ([2]; positive control 2.5 and 5 μg/mL, presence of S9): 35.7–45.7 × 10^−6

Compound: COc1cc2c3cc1Oc1cc(ccc1O)C[C@@H]1c4c(cc(OC)c(O)c4Oc4ccc(cc4)C[C@@H]3N(C)CC2)CC[N+]1(C)C [(+)-tubocurarine]
- LD50 (mice [3]): 0.11 mg/kg

Compound: CCN(N=O)C(N)=O [ethylnitrosurea, reference compound]
- frequency of mutations in the hprt gene ([2]; positive control 6.25 and 12.5 μg/mL, absence of S9): 33.9–39.5 × 10^−6

Compound: diiodoazemiopsin [[^125I]-Az]
- removal from the free blood flow ([4]; during 24 h, both iv and im administration): almost completely removed
- half-life T1/2 [4, 12]: 20 to 40 min
- time within which maximum concentration (Cmax) was achieved [4, 12]: five
- excretion half-life (T1/2) ([4]; single intravenous injection, 0.25 and 0.5 mg/kg, male ICR mice): 15 to 20 min
- lethality (male ICR mice [5]; [125I]-Az single iv and im 0.25 and 0.50 mg/kg, male ICR mice): No lethality

Compound: COc1ccc(CC2c3cc(OC)c(OC)cc3CC[N+]2(C)CCC(=O)OCCCCCOC(=O)CC[N+]2(C)CCc3cc(OC)c(OC)cc3C2Cc2ccc(OC)c(OC)c2)cc1OC (stereo not drawn) [atracurium]
- excretion half-life [6]: 17 min

Compound: α-conotoxin MII [reference compound]
- IC50 ([7]; read-out: IC50, inhibition of calcium responses induced by 100 µM nicotine): 0.06 ± 0.004 µM

Compound: CN1CCC[C@H]1c1cccnc1 [nicotine, reference compound]
- EC50 ([7]; read-out: EC50 of nicotine-induced calcium responses): 22 ± 2 µM

Compound: CC(=O)O[C@H]1C[C@@H]2CC[C@@H]3[C@H](CC[C@@]4(C)[C@H]3C[C@H]([N+]3(C)CCCCC3)[C@@H]4OC(C)=O)[C@@]2(C)C[C@@H]1N1CCCCC1 [vecuronium]
- LD50 (mice [3]): 0.05 mg/kg
- Cmax [6]: about 1 µg/mL

Compound: C=CC[N+]1([C@H]2C[C@H]3[C@@H]4CC[C@H]5C[C@H](O)[C@@H](N6CCOCC6)C[C@]5(C)[C@H]4CC[C@]3(C)[C@H]2OC(C)=O)CCCC1 [rocuronium, Rocuronium Bromide, reference compound]
- IC50 ([8]; 30 μM ACh (EC100), transfected Neuro2a cells, Case12 sensor, 15 min preincubation, mean ± SEM, 4 independent experiments, read-out: IC50, inhibition of ACh-evoked calcium response of muscle nAChR): 0.257 ± 0.0955 µM
- selectivity to muscle receptor versus α7 nAChR ([8]; ratio of calcium imaging IC50 values α7 / muscle): about 100 times
- IC50 [9]: 25.7 ± 4.5 µM
- Cmax [6]: 27 µg/kg
- excretion half-life [6]: 71 min
- visible signs of toxicity (male ICR mice [5]; rocuronium im 0.08 mg/kg): did not induce visible signs of toxicity
- time after administration at which toxicity signs disappeared (male ICR mice [5]; rocuronium im 0.1 mg/kg): 3 to 4 min
- time of first signs of intoxication after injection (male ICR mice [5]; rocuronium im 0.13 mg/kg): 30 s
- time of death after injection (male ICR mice [5]; rocuronium im 0.13 mg/kg, n = 1): 11.5 min
- lethality (male ICR mice [5]; rocuronium im 0.08 and 0.1 mg/kg, n = 4 each): did not cause the death of animals
- inhibition of Nic induced responses [7]: about 60%
- genotoxicity [10]: capable of causing genotoxicity via clastogenic effects
- effect on grip strength compared to control (male ICR mice [11]; rocuronium 0.08 mg/kg im, n = 4): no statistically significant difference; also recorded: no statistically significant relaxing effect
- grip strength (male ICR mice [11]; rocuronium 0.13 mg/kg im, after 60 s, n = 1): 0 kg
- time after injection at which effect disappeared (male ICR mice [11]; rocuronium im): ≤ 5 min
- LD50 (rats): about 0.3 mg/kg
